Source: a melting point compilation (Tetko et al.; mined from patent text by program, amines drawn as free bases though some values may be those of a salt)

| Structure (SMILES) | melting point |
| --- | --- |
| C=Cc1ccc(C(=O)Oc2ccc(S(=O)(=O)Nc3ccccc3)cc2)cc1 | 59 to 60 °C |
| CC1(C)CC(N2CCCCCC2=O)CC(C)(C)N1O | 212 to 215 °C |
| CCCCCCOCC1CN(c2cc3c(cc2F)c(=O)c(C(=O)O)cn3CC)CCN1C (stereo unspecified) | 172 to 174 °C |
| CCCc1c(O)ccc2c(=O)cc(C(=O)OCC)oc12 | 155 to 162 °C |
| Cc1c(NC(=O)c2ccc(-c3ccc(F)cc3)cc2)ccc2cc(CN3CCCC3Cc3ccccc3)cnc12 (stereo unspecified) | 172 to 174 °C |
| Fc1cc(-c2cc(C(F)(F)F)n3cnc(-c4ccncc4)c3n2)ccc1C(F)(F)F | 267 °C |
| CC(C)(C)c1cc(-c2nn(CC(=O)O)c3ncccc23)cc(C(C)(C)C)c1O | 210 to 212 °C |
| CC(C)CNCC(=O)Nc1ccc2c(c1)C(=O)c1cc(NC(=O)CNCC(C)C)ccc1C2=O | 146 °C |
| Cc1ccccc1C(=O)OCC1OC(N2CN(C)C(=O)NC2=O)CC1OC(=O)c1ccccc1C (stereo unspecified) | 184 to 185 °C |
| Cc1nnc2n1-c1ccc(I)cc1C(c1ccccc1F)=NC2 | 235 to 238 °C |
| CCCCCCCCCCOc1ccc(-c2ccc(OCCCCCCCCCC)c(OCCCCCCCCCC)c2)cc1OCCCCCCCCCC | 85 to 86 °C |
| CC(=O)OC1CSC(Oc2ccc(-c3cncc(C)c3)nc2)C(OC(C)=O)C1OC(C)=O (stereo unspecified) | 189 to 190 °C |
| Cc1ccc(C(=O)Nc2ccc(-n3nc(C(F)(F)F)cc3C(F)(F)F)cc2)s1 | 200 to 202 °C |
| CC(=O)OC1CCC2(C)C(=CC(=NO)C3C2CCC2(C)C(OC(C)=O)CCC32)C1 (stereo unspecified) | 236 to 238 °C |
| CC(=O)Nc1ccc(C2=NNC(=O)NC2C)cc1Cl (stereo unspecified) | 250 to 252 °C |
| COc1cc(OC)c(F)c(N2Cc3cnc(NC[C@H](O)[C@@H](O)CO)nc3N(C3CCCC3)C2=O)c1 | 86 to 88 °C |
| COc1cc(C2c3cc4c(cc3C(NC3=CC(=O)N(Cc5ccc(C(F)(F)F)cc5)C3=O)C3COC(=O)C23)OCO4)cc(OC)c1O (stereo unspecified) | 184 to 186 °C |
| COc1nc2ccc(Br)cc2cc1C#N | 169 to 172 °C |
| CON=CNC(=O)c1ccc(C2=NOC(c3cc(Cl)cc(Cl)c3)(C(F)(F)F)C2)cc1C(C)(C)N (stereo unspecified) | 144 to 146 °C |
| Cn1ncc(CC(=O)O)c1OCCCc1cn(-c2ccc(C(F)(F)F)cn2)nc1C1CCCCC1 | 137 to 138 °C |

| Structure (SMILES) | melting point |
| --- | --- |
| CCCCc1nc(N)c(N)c(=O)[nH]1 | 160 to 165 °C |
| COc1ccc(N2CCN(c3c(C)c(C)c4c(c3C)C(OCc3ccc(C(=O)O)cc3)C(C)(C)O4)CC2)cc1 (stereo unspecified) | 162 to 163 °C |
| CNC(=O)c1ccc2[nH]ccc2c1 | 140 to 141 °C |
| O=C(O)Cc1c(-c2cccs2)nn(-c2ccccc2)c1-c1cccs1 | 216 to 218 °C |
| CCOC(=O)C=Cc1cc(OCc2ccccc2)ccc1-c1ccc(-c2cccnc2)c(C(F)F)c1 | 93 to 95 °C |
| CCn1cc(C(=O)O)c(=O)c2c(C)c(F)c(F)cc21 | > 300 °C |
| CCn1cc(C(=O)O)c(=O)c2cnc(N3CCN(Cc4ccccc4)CC3)nc21 | 207 °C |
| CN(C)Cc1ccc(CSCCNC(=C[N+](=O)[O-])NCc2ccc3c(c2)OCO3)o1 | 98 to 120 °C |
| O=C(O)C1Cc2cccc([N+](=O)[O-])c2C1 (stereo unspecified) | 140 °C |
| Cc1csc2c(C(=O)O)c(=O)c3cc4c(cc3n12)OCO4 | 303 to 305 °C |
| NC(=O)c1ccc(C2CCCc3cncn32)cc1 (stereo unspecified) | 181 to 183 °C |
| COc1ccc(N2CCOCC2)c2sc(NC(=O)N3CC4CC[C@@](C)(C3)C4(C)C)nc12 | 185 to 189 °C |
| Cc1nnc2n1-c1ccc(I)cc1C(c1ccccc1Cl)=NC2 | 290 to 292 °C |
| CCCCc1nc2c(c(=O)[nH]1)CN(C(=O)OCc1ccccc1)CC2 | 117 to 122 °C |
| Oc1nc(Cl)c(Cl)cc1Cl | 168 to 170 °C |
| C=C(C)C(=O)OCCCCCCOc1ccc(C=Cc2ccc([N+](=O)[O-])cc2)cc1 | 90 to 95 °C |
| CC(C)(CCCC(=O)O)c1ccc2c(c1)C(=O)c1ccc(C(C)(C)CCCC(=O)O)cc1C2=O | 222 to 224 °C |
| CC(C)Cc1c2c(nn1C)c(N)nc1ncccc12 | > 250 °C |
| Cn1cccc1Cc1cccc(NC(N)=O)c1 | 84 to 86 °C |
| COC(=O)[C@H]1Cc2c([nH]c3ccccc23)[C@@H](c2ccc3c(c2)OCO3)N1C(=O)C(C)Cl (stereo partly specified) | 125 to 127 °C |

| Structure (SMILES) | melting point |
| --- | --- |
| COc1ccc(OC)c(C(=O)c2cccc(OC)c2C(=O)O)c1 | 180 to 182 °C |
| COC(=O)C(C#N)=Cc1cc2c(cc1C)N(CCOC(C)=O)C(C)(C)CC2C (stereo unspecified) | 134 to 135 °C |
| CS(=O)(=O)Nc1c(C(=O)c2ccccc2)[nH]c2cc(F)ccc12 | 166 to 168 °C |
| CC(Br)=C(c1ccccc1)c1ccccc1 | 46 to 47 °C |
| CCOC(=O)C(C)NC(=O)CN(C(=O)c1ccc(Cl)cc1)c1c(C)cccc1C (stereo unspecified) | 91 to 92 °C |
| COC(C)(C)c1cccc(Cn2nnc3c(-c4ccc(C)o4)nc(N)nc32)n1 | 178 °C |
| CC(C)(C)c1cc(C(=O)OCCN(CCO)C(=O)c2cc(C(C)(C)C)c(O)c(C(C)(C)C)c2)cc(C(C)(C)C)c1O | 174 to 178 °C |
| O=C1CCC(N2C(=O)c3cccc(CNC(=O)c4cccc(Br)n4)c3C2=O)C(=O)N1 (stereo unspecified) | 181 to 183 °C |
| CC(C)(COC(=O)c1ccccc1)c1cc(OS(C)(=O)=O)ccc1OC(=O)c1ccccc1 | 100 to 101 °C |
| COc1ccc(C(=O)OC2CC3C(=O)NC4(C(=O)NS(=O)(=O)C5CC5)CC4C=CCCCCCC(NC(=O)OC(C)(C)C)C(=O)N3C2)cc1 (stereo unspecified) | 151 to 153 °C |
| COc1ccc2c(c1)c1c(n2CCC(=O)NN)CCN(C)C1 | 126 to 128 °C |
| CC(C)(C)OC(=O)N1CCc2snc(O)c2C1 | 174 to 177 °C |
| CCCc1c(C(N)=O)sc(SC)c1-c1oncc1-c1ccccc1 | 140 to 141 °C |
| Oc1ccc2oc3ccccc3c2c1Cn1c(=S)sc2ccccc21 | 174 to 180 °C |
| CCC(CC(N)=O)c1cccc2nc3n(c12)CCCN3c1ccc(Cl)cc1Cl (stereo unspecified) | 132 to 133 °C |
| CCOP(=O)(OCC)C(CCc1cc(C)nc2c(C#N)c(C)nn12)P(=O)(OCC)OCC | 49 to 50 °C |
| Cc1cc(C)c(CN2CCN(C)CC2)c(C)c1C=O | 90 °C |
| COC(=O)c1cc(NC(=O)c2ccccc2Cl)c2cc(Cc3ccc(F)cc3)cnc2c1O | 230 to 232 °C |

More lines, now with the values ahead:

| melting point | Structure (SMILES) |
| --- | --- |
| 145 to 146 °C | c1ccc2c(c1)CCc1ccccc1C2CNc1ccncc1 |
| 193 to 194 °C | Nc1ncc(C#Cc2ccc(Cl)cc2)c(N2CCOCC2)n1 |
| 137 to 141 °C | O=C1NCCN1CCN1CCC(c2noc3cc(F)ccc23)CC1 |
| 164 °C | N#Cc1c(N2CCc3ccccc3CC2)nc(CCO)n(CCO)c1=O |
| 135 to 136 °C | CC(C)(C)OC(=O)N1CCN(CCOC(N)=O)CC1 |
| 197 to 198 °C | Cc1nccn1-c1nc(-c2ccc(Cl)cc2)c(CCCN2C(=O)CNC2=O)o1 |
| 213 to 214 °C | COc1ccc(CNc2nnc(Cl)c3ccc(C#N)cc23)cc1Cl |
| 219 to 221 °C | O=C1COC(C#Cc2cccnc2)(C(F)(F)F)c2cc(Cl)ccc2N1 (stereo unspecified) |
| 175 to 177 °C | CC(N=C(NN)NN)C(=O)O (stereo unspecified) |
| 192 to 195 °C | Cc1cc(=O)c(-c2ccc(C#N)cc2)c(C)[nH]1 |
| 138 to 140 °C | CNc1c(N)cnn1CCO |
| 323 to 327 °C | COc1ccc2nc3cc(C(=O)O)ccn3c(=O)c2c1 |
| 154 to 155 °C | CN1CC[C@H](NC(=O)c2ccccc2)[C@H](c2ccccc2)C1 (relative stereo) |
| 170 to 171 °C | O=C1c2ccc(Cl)cc2C(=O)N1CCN1CCC(c2noc3cc(F)ccc23)CC1 |
| 165 to 168 °C | O=C(O)CCc1cc2cc(Cl)ccc2n1S(=O)(=O)c1ccccc1 |
| 200 to 208 °C | CN(C)C(=O)c1cccnc1S |
| 121 to 123 °C | Cc1ccc(S(=O)(=O)N(Cc2cc(C(C)(C)C)c(O)c(C(C)(C)C)c2)c2cccnc2)cc1 |
| 131 to 132 °C | Cc1sc(-c2ccccc2)nc1CCOc1ccc([N+](=O)[O-])cn1 |
| 127 °C | N#Cc1ccc(Oc2ccccc2[N+](=O)[O-])cc1C#N |

| melting point | Structure (SMILES) |
| --- | --- |
| 85 to 87 °C | CCCCCCOc1ccc(-c2nc(-c3ccc(OCCCCCC)cc3O)nc(-c3ccc(OCCCCCC)cc3OCCCCCC)n2)c(O)c1 |
| 166 to 168 °C | CC(=O)SCC(Cc1ccccc1)C(=O)NC1(C(=O)OCc2ccccc2)CCCCC1 (stereo unspecified) |
| 191 to 194 °C | NS(=O)(=O)c1ccc(-c2cnn(CC=C(F)F)c(=O)c2-c2ccc(F)cc2)cc1 |
| 208 to 210 °C | Cc1cc(Cl)cc2c1OCC(/C=C/C=C/C=C/C(=O)O)=C2 |
| 147 to 149 °C | CCCCCCCCCCCCCCCCCCOc1cc(N(CC(=O)O)CC(=O)O)cc(S(C)=O)c1 (stereo unspecified) |
| 118 °C | CCCCCCCC(O)C(O)Cc1cc(C(N)=O)ccc1C(N)=O (stereo unspecified) |
| 135 to 136 °C | CCOc1ccc(C2=NN(C3CCN(C(=O)CCl)CC3)C(=O)[C@@H]3CC=CC[C@H]23)cc1OCC |
| 192 to 193 °C | N#CCCNC(=O)c1cccc(-c2cccc3nc(Cc4cccc(C(F)(F)F)c4)cn23)c1 |
| 144 to 147 °C | C=C1CSC2C(NC(=O)Cc3ccccc3)C(=O)N2C1C(=O)OC(c1ccccc1)c1ccccc1 (stereo unspecified) |
| 190 to 192 °C | c1ccc2c(c1)CCN(Cc1c[nH]c3ncccc13)C2 |
| 90 to 92 °C | CCOCCn1c(COc2ccc(CO)cc2)nc2ccccc21 |
| 198 °C | CCCC1=C(C(=O)OCC)C(c2ccnc3ccccc23)c2c[nH]nc2N1 (stereo unspecified) |
| 213 to 214 °C | CC(C)Cn1c(CNC(=O)OC(C)(C)C)c(-c2ccccc2)c2cc(-c3nc(C(=O)O)cs3)ccc2c1=O |
| 50.2 to 51.7 °C | COC(=O)CCc1ccc(OCCc2nc(-c3ccccc3)oc2C)cc1 |
| 184 °C | CCc1c(C)c(=O)oc2cc(O)ccc12 |
| 76 to 78 °C | CCOc1ccc(NCc2cc(OC)c(OC)c(OC)c2)cc1 |
| 70 to 72 °C | CCCc1ccc(-c2ncccc2S(=O)(=O)Nc2ncc(C)nc2OC)cc1 |
| 106 to 108 °C | C/C(O)=C(\C#N)C(=O)Sc1ccccc1 |
| 171 °C | CCc1n[nH]c(=O)n1N |
